Laboratory results reported in publication PMC5374441 (Scientific Reports, 2017).
Bridge positions count the residues as written; N and C are the ends. Peptide text beside a SMILES is read from it.

Legend:
Ls-AChBP = molecular target: T1, Ls-AChBP (Lymnaea stagnalis, UniProt P58154); assay: biochemical; format: binding; details: SEM
T1 construct: made in house

Ac-AChBP = molecular target: T2, Ac-AChBP (Aplysia californica, UniProt Q8WSF8); assay: biochemical; format: binding; details: SEM
T2 construct: made in house
T2 sequence (Q8WSF8 18-236 limits assumed): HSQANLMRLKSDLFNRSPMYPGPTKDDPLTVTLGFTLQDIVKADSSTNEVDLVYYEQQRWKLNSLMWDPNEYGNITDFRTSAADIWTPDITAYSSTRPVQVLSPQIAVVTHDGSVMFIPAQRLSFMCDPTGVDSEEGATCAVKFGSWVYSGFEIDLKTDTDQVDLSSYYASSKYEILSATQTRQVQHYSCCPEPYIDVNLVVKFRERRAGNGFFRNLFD

human α7 nAChR = human α7 nAChR (Homo sapiens, UniProt P36544); assay: cell-based; details: SEM
Sequence of human α7 nAChR (P36544 23-502 limits assumed): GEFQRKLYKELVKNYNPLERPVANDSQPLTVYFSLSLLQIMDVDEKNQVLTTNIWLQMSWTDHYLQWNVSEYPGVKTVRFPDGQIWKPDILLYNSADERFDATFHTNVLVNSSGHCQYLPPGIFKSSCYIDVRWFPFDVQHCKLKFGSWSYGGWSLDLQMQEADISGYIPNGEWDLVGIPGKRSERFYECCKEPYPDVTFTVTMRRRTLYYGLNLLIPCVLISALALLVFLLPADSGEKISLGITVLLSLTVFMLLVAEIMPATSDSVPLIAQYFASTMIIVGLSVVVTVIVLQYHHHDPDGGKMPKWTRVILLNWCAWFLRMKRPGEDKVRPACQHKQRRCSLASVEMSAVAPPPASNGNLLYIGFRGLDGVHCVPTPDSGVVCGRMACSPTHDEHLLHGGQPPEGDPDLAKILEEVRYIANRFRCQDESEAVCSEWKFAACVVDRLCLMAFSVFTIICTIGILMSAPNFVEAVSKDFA

human α3β4 nAChR = human α3β4 nAChR (Homo sapiens, UniProt P30926+P32297); assay: cell-based
Sequence of human α3β4 nAChR (P32297 32-505 limits assumed): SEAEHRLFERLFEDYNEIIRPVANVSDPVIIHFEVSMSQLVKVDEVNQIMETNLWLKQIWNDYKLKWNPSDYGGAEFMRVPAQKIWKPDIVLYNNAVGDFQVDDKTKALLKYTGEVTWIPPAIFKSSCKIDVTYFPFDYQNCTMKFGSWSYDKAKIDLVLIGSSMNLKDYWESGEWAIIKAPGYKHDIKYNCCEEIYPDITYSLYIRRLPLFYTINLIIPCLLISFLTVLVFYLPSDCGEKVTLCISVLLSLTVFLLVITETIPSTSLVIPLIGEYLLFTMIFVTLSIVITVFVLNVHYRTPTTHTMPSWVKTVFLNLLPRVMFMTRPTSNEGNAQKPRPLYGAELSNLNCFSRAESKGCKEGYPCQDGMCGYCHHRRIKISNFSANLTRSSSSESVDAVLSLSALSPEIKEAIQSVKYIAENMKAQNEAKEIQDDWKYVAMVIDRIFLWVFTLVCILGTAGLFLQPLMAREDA
Sequence of human α3β4 nAChR (P30926 22-498 limits assumed): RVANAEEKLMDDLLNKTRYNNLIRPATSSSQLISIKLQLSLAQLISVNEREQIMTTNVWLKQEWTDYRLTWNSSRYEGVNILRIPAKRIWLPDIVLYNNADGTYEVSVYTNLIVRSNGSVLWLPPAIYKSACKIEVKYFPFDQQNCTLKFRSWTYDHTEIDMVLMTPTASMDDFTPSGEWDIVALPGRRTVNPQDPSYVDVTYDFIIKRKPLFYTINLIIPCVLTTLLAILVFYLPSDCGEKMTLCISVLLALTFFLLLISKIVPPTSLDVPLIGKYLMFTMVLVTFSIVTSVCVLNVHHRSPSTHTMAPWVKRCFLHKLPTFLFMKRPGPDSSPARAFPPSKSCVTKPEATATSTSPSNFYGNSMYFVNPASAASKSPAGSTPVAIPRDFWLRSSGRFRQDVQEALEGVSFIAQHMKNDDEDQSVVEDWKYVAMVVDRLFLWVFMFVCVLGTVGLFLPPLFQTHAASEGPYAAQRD

T1 sequence (P58154 20-229 limits assumed): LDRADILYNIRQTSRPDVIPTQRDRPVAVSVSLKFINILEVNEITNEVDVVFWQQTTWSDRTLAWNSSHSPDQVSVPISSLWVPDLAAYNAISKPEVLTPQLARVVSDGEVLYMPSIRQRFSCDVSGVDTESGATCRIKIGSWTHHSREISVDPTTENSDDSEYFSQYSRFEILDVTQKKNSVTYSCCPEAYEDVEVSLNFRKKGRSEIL

## CC[C@H](C)[C@@H]1NC(=O)[C@H](CC(N)=O)NC(=O)[C@@H]2CCCN2C(=O)[C@H](CC(N)=O)NC(=O)[C@H](CC(N)=O)NC(=O)[C@H](C(C)C)NC(=O)[C@H](CCCNC(=N)N)NC(=O)[C@@H]2CSSC[C@H](NC(=O)CNC(=O)[C@@H](N)CO)C(=O)N[C@@H](CSSC[C@@H](C(N)=O)NC1=O)C(=O)N[C@@H](CO)C(=O)N[C@@H](CC(N)=O)C(=O)N1CCC[C@H]1C(=O)N[C@@H](C)C(=O)N2 [LsIA] (H-SGCCSNPACRVNNPNIC-NH2; disulfide 3-9, 4-17)
Ls-AChBP
  IC50: 210 ± 40 nM
Ac-AChBP
  IC50: 5.44 ± 0.35 nM
Human α7 nAChR
  IC50: 70 ± 7 nM
Human α3β4 nAChR
  IC50: > 10000 nM
